Assay results taken from patent US20100160391A1, “Substituted Aminopyridines as Fluorescent Reporters for Amide Hydrolases” (priority 2006, published 2010).
Marks after values point to notes of the source that are not given here.

Tests used:
[1] = Molar extinction coefficient of fluorescent reporters; type: physicochemical; conditions: H2O containing 1% ethanol, 290 nm, 30° C., 10-50 μM
Experimental: Molar extinction coefficient. According to Beer's law, Aλ=ε*C*L, where Aλ is the absorbance at wavelength (λ nm); ε is called the molar extinction coefficient; L is the width of the sample cuvette; and C is the concentration of the solute. In this example, a series of concentrations falling between 10 and 50 μM (final concentration) for each fluorescent reporter was used for determination of the molar extinction coefficient. Assays were performed in a quartz cuvette (1 cm optical passage). 10 μl of a stock solution of a reporter in ethanol (1, 2, 3, 4, or 5 mM) was added to 990 μl H2O. The resulting mixture was degassed by sonication with ultrasonic cleaner Model 750 (VWR International; Wester, Pa.) for 10 seconds at a power level of 9. Measurements were performed with a Spectra Max M2 spectrophotometer (Molecular Devices; Sunnyvale, Calif.) at a wavelength of 290 nm. A slope (or extinction coefficient) was obtained by using an average absorbance of triplicate samples.

[2] = Maximal excitation and emission wavelengths; type: physicochemical; conditions: 50 μM in 0.1 M phosphate buffer, 30° C.; SD ±2 nm
Experimental: Maximal excitation and emission wavelengths. A stock solution in ethanol of each compound (10 μl, 5 mM) was added to 990 μl of sodium phosphate buffer (0.1 M, pH 8.0, final substrate concentration 50 μM) in a 1-cm quartz cuvette. The quartz cuvette was scanned from 200 to 500 nm for absorption spectra with a Spectra Max M2 spectrophotometer. Maximal excitation and emission wavelengths were obtained from scanning from 250 to 600 nm and 360 to 600 nm by a 2 nm interval at 30° C., respectively.

[3] = Fluorescence quantum yield; type: physicochemical; conditions: 10 μM, 1% ethanol in water, excitation 290 nm, standard 3-aminopyridine; SD under ±5%
Experimental: Quantum yield. The fluorescence quantum yield, φf, was calculated according to the following equation:
ØF=Østd*(I/Istd)*(ODstd/OD)*(n/nstd)^2,
wherein ØF is the quantum yield of the tested fluorescent reporter; Østd is the fluorescence quantum yield of the standard; I and Istd are the integrated emission intensities of the sample and the standard, respectively; OD and ODstd are the absorbance of the sample and standard, respectively, at the desired wavelength λex; and n and nstd are the indexes of refraction of the sample and standard solutions, respectively (Horspool and Song (Eds.), CRC Handbook of Organic Photochemistry I, pp 234-235, CRC Press, Boca Raton, Fla., 1995).
In this example, 3-aminopyridine in water at the maximal excitation wavelength of 290 nm was used as a standard (Østd=0.32, εmax=2800 M^−1 cm^−1) (see, e.g., Weisstuch et al., J. Phys. Chem., 72:1982-1987 (1968)). In order to minimize inner filter effects, the optical densities of samples at the excitation wavelength (λ=290 nm) were kept in the range of 0.095-0.13 (less than 0.150-0.165). The final concentration of each tested sample in a quartz cuvette was 10 μM with 1% ethanol in water, same as that for the standard. The integrated area of fluorescent intensity for the standard or the samples was based on the area between 360 and 500 nm. The difference of the index of refraction between the standard and the sample was neglected because (1) all measurements were performed in the same quartz cuvette and spectrofluorimeter; (2) the final concentrations of the sample and the standard were the same; and (3) the structures of the sample and standard were very similar, i.e., only one pyridine ring. The quantum yields presented in Table 1 were based on calculation of the average of OD and integrated fluorescent intensities of triplicates. The standard deviation for each quantum yield was less than ±5%.

[4] = molecular target: T1, L-Leucine aminopeptidase from porcine kidney microsomes (Sus scrofa, UniProt P15145); experiment: Sensitivity of L-Leucine aminopeptidase toward colorimetric and fluorescent substrates; type: biochemical; conditions: for base line, Average: 0 min; for base line, Average / signal, Average: 25 μM; for signal, Average: 10 min; for Protein, lowest detection limit of L-Leucine aminopeptidase (signal at 10 min ≥ 3 times base line): substrate 25 μM
T1 construct: purchased Sigma-Aldrich L5006; host or cells: porcine kidney microsomes
T1 sequence (P15145 1-963): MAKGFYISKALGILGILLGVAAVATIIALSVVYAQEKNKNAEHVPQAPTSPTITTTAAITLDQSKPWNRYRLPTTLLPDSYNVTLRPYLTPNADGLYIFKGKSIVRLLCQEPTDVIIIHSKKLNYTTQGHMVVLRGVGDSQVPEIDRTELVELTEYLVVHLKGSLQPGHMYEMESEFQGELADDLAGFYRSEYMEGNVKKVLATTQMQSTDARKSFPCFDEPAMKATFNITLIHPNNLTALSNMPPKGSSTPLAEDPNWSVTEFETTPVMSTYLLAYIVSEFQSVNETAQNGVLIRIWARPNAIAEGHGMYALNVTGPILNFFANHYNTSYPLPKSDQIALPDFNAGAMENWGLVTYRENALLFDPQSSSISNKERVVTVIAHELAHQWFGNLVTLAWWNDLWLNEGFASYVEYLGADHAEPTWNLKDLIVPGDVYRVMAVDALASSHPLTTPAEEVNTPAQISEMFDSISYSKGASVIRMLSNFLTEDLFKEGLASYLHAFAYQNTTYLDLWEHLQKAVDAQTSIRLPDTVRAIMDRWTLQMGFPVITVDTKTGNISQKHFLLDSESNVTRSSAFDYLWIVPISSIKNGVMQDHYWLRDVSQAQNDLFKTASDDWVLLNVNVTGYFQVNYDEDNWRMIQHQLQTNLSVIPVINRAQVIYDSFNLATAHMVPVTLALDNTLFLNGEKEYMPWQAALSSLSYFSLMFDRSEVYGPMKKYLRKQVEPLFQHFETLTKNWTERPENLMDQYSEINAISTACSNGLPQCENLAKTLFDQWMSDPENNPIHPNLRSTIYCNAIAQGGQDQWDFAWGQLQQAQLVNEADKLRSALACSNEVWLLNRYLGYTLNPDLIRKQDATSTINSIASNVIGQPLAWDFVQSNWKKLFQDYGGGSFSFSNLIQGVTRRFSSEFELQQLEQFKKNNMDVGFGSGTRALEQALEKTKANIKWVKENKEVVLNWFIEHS
Experimental: Comparison of the sensitivities of L-Leucine aminopeptidase toward colorimetric and fluorescent substrates. In general, all assays were performed in 96-well styrene flat-bottom microtiter plates using a Spectra Max M2 spectrophotometer at 37° C. for 10 min. The total volume of each well was 201 μl containing 0.1 M sodium phosphate buffer (190 μl, pH 7.2), stock or diluted protein solution (10 μl), and 5 mM of the substrate solution (1 μl) in either ethanol for substrates (18) and (19). The lowest detection limit of microsomal L-Leucine aminopeptidase by substrates was determined by the fact that the signal at 10 min was equal to or over 3 times the basal line at 0 min. Colorimetric substrates assays (e.g., (20)) were performed in clear 96-well microtititer plates using an absorbance wavelength of 382 nm. The fluorescent substrates containing 5-amino-2-methoxypyridine (e.g., (19)) were measured at an excitation wavelength (302 nm), emission wavelength (396 nm), and auto cutoff wavelength (325 nm). Similarly, the fluorescent substrates containing 5-amino-2-methoxy-6-methylpyridine (e.g., (18)) were measured at an excitation wavelength (304 nm), emission wavelength (392 nm), and auto cutoff wavelength (325 nm).

[5] = pH 7.2, 37° C., protein 1.97 (18), 0.018 (19) μg/well
[6] = absorbance 382 nm, protein 1.97 μg/well

Compound | εmax, molar extinction coefficient [1] | Em, maximal emission wavelength [2] | Ex, maximal excitation wavelength [2] | ØF, fluorescence quantum yield [3] | Protein, lowest detection limit of L-Leucine aminopeptidase (signal at 10 min ≥ 3 times base line) ([4]; pH 7.2, 37° C.) | further results
Cc1ccncc1N [Compound 2, 3-amino-4-methylpyridine] | 2580 M⁻¹ cm⁻¹ | 376 nm | 280 nm | 0.53 | – | –
Cc1ccc(N)cn1 [Compound 3, 3-amino-6-methylpyridine] | 2700 M⁻¹ cm⁻¹ | 384 nm | 290 nm | 0.62 | – | –
Nc1cccnc1F [Compound 4, 3-amino-2-fluoropyridine] | 3670 M⁻¹ cm⁻¹ | 374 nm | 282 nm | 0.04 | – | –
Nc1ccc(F)nc1 [Compound 5, 5-amino-2-fluoropyridine] | 2360 M⁻¹ cm⁻¹ | 384 nm | 292 nm | 0.72 | – | –
COc1ncccc1N [Compound 7, 3-amino-2-methoxypyridine] | 4670 M⁻¹ cm⁻¹ | 378 nm | 284 nm | 0.27 | – | –
COc1ccc(N)c(C)n1 [Compound 8, 3-amino-6-methoxy-2-picoline] | 4130 M⁻¹ cm⁻¹ | 392 nm | 304 nm | 0.97 | – | –
COc1ccc(NC(C)=O)c(C)n1 [Compound 11, N-(6-methoxy-2-methylpyridin-3-yl) acetamide] | – | – | – | – | – | melting point: 130.1 to 130.4 °C
COc1ccc(NC(=O)[C@@H](N)CC(C)C)c(C)n1 [Compound 18, N-(6-methoxy-2-methylpyridin-3-yl), (S)-2-amino-4-methylpentanamide] | – | – | – | – | 1.97 μg/200 μL | base line, Average [4, 5]: 164 RFU/sec; signal, Average [4, 5]: 494* RFU/sec
COc1ccc(NC(=O)[C@@H](N)CC(C)C)cn1 [Compound 19, N-(6-methoxypyridin-3-yl), (S)-2-amino-4-methylpentanamide] | – | – | – | – | 0.018 μg/200 μL | base line, Average [4, 5]: 67 RFU/sec; signal, Average [4, 5]: 228* RFU/sec; times more sensitive than substrate (20) ([4]; Table 5): at least 100 times
CC(C)C[C@H](N)C(=O)Nc1ccc([N+](=O)[O-])cc1 [Compound 20, L-Leucine-p-nitroanilide] | – | – | – | – | 1.97 μg/200 μL | base line, Average [4, 6]: 0.08 OD; signal, Average [4, 6]: 0.24* OD
